Results from patent US10526581B2, “Modulation of cardiac stem-progenitor cell differentiation, assays and uses thereof” (priority 2013, dated 2020).
Entries after “also recorded” stand apart in the source; their conditions may differ.

B1: BMP-10: cardiopoietic growth factor (protein, UniProt O95393 317-424, looked up)
Bone morphogenetic protein 10: NAKGNYCKRTPLYIDFKEIGWDSWIIAPPGYEAYECRGVCNYPLAEHLTPTKHAIIQALVHLKNSQKASKACCVPTKLEPISILYLDKGVVTYKFKYEGMAVSECGCR
B2: Wnt5a: non-canonical Wnt, cardiopoietic growth factor (protein, UniProt P41221 62-380, looked up)
Protein Wnt-5a: IIGAQPLCSQLAGLSQGQKKLCHLYQDHMQYIGEGAKTGIKECQYQFRHRRWNCSTVDNTSVFGRVMQIGSRETAFTYAVSAAGVVNAMSRACREGELSTCGCSRAARPKDLPRDWLWGGCGDNIDYGYRFAKEFVDARERERIHAKGSYESARILMNLHNNEAGRRTVYNLADVACKCHGVSGSCSLKTCWLQLADFRKVGDALKEKYDSAAAMRLNSRGKLVQVNSRFNSPTTQDLVYIDPSPDYCVRNESTGSLGTQGRLCNKTSEGMDGCELMCCGRGYDQFKTVQTERCHCKFHWCCYVKCKKCTEIVDQFVCK
B3: BMP-4: cardiopoietic growth factor (protein, UniProt P12644 293-408, looked up)
Bone morphogenetic protein 4: SPKHHSQRARKKNKNCRRHSLYVDFSDVGWNDWIVAPPGYQAFYCHGDCPFPLADHLNSTNHAIVQTLVNSVNSSIPKACCVPTELSAISMLYLDEYDKVVLKNYQEMVVEGCGCR
B4: Wnt3a: soluble Wnt-3a, canonical Wnt growth factor (protein, UniProt P56704 19-352, looked up)
Protein Wnt-3a: SYPIWWSLAVGPQYSSLGSQPILCASIPGLVPKQLRFCRNYVEIMPSVAEGIKIGIQECQHQFRGRRWNCTTVHDSLAIFGPVLDKATRESAFVHAIASAGVAFAVTRSCAEGTAAICGCSSRHQGSPGKGWKWGGCSEDIEFGGMVSREFADARENRPDARSAMNRHNNEAGRQAIASHMHLKCKCHGLSGSCEVKTCWWSQPDFRAIGDFLKDKYDSASEMVVEKHRESRGWVETLRPRYTYFKVPTERDLVYYEASPNFCEPNPETGSFGTRDRTCNVSSHGIDGCDLLCCGRGHNARAERRREKCRCVFHWCCYVSCQECTRVYDVHTCK
B5: Dkk-1: Dickkopf-1, an inhibitor of canonical Wnts (protein, UniProt O94907 32-266, looked up)
Dickkopf-related protein 1: TLNSVLNSNAIKNLPPPLGGAAGHPGSAVSAAPGILYPGGNKYQTIDNYQPYPCAEDEECGTDEYCASPTRGGDAGVQICLACRKRRKRCMRHAMCCPGNYCKNGICVSSDQNHFRGEIEETITESFGNDHSTLDGYSRRTTLSSKMYHTKGQEGSVCLRSSDCASGLCCARHFWSKICKPVLKEGQVCTKHRRKGSHGLEIFQRCYCGEGLSCRIQKDHHQASNSSRLHTCQRH

Tests used:
[1] = tested on: c-kit^pos CD45^neg eCSCs; test: BrdU incorporation proliferation assay of c-kit^pos eCSCs with cardiopoietic growth factors and Wnt or TGF-β modulators; format: cell-based, rat; conditions: in vitro
Method: (§1) c-kit^posCD45^neg eCSCs express functional receptors for these cardiopoetic factors (cGFs) (FIG. 4). In particular, both TGF-β1 and Wnt receptors are activated and signal to their known downstream effectors in eCSCs isolated from ISO injured hearts (FIG. 4). We thus directly tested in vitro the growth response of freshly isolated c-kit^pos CD45^neg eCSCs grown in limited serum (1% ESQ-FBS) to individual cGFs. Dose-response curves were performed to determine the optimal concentration for each cGF (FIG. 13A-H). […] These effects were confirmed by qRT-PCR of cardiomyocyte-specific mRNAs (FIG. 5).
(§2) Wnt/β-catenin and TGF-β/SMADs signaling play critical roles in the regulation of embryonic as well as different tissue-specific stem cell fate (21-23). In particular, these two signaling pathways have distinct functions in mammalian cardiogenesis (24-27). Thus, to extend our findings we have tested through gain and loss of function experiments the effects of Wnt/β-catenin and TGF-β/SMADs signaling pathways on c-kit^pos eCSC fate in vitro. […] To disrupt Wnt/ρ-catenin, c-kit^pos eCSCs were either treated with Dickkopf-1 (Dkk-1), an inhibitor of canonical Wnts or transfected with a specific short hairpin RNA for β-catenin (β-cat^shRNA). […] The positive and negative modulators of Wnt/β-catenin physiologically acted on their known molecular targets by respectively stabilizing or degrading β-catenin and its LEF/TCF-dependent transcriptional activity (FIG. 6). […] On the other hand, Dkk-1 increased c-kit^pos CSC myocyte specification (FIG. 5), even though its effect was not sufficient to produce a fully differentiated phenotype as indicated by the lack of cells which expressed abundant and organised sarcomeric structures (FIG. 5).

[2] = tested on: c-kit^pos eCSCs; test: cardiomyocyte differentiation of c-kit^pos eCSCs in differentiation medium (cTnI^pos cells, qRT-PCR); format: cell-based, rat; conditions: for number of myocyte differentiating (cTnI^pos) cells / transcription of myogenic lineage markers: differentiation medium (LIF withdrawal); for transcription of myogenic lineage markers: qRT-PCR; for differentiation of eCSCs into the cardiomyocyte lineage (myocyte specification): differentiation medium
Method: FIGS. 4(A-E). […] Nuclei were identified by DAPI in blue. Bar=50 μm. […] Data are Mean±SD of n=6/condition. […]
RNA was extracted using Qiagen RNeasy columns and was reverse transcribed using first strand cDNA synthesis with random or oligo-dT primers (Applied Biosystems). Residual amounts of DNA were removed by on-column DNase treatment using the RNase-Free DNase Set (Qiagen) during the RNeasy procedure. Quantitative RT-PCR was performed using SYBR Green (BioRad) on a MyIQ thermocycler (BioRad). The PCR-reaction included 2 μl of template cDNA, and 300 nM forward and reverse primers. PCR efficiency was evaluated by using a standard curve of five serial dilution points. Data were analysed using BioRad IQ software and mRNA was normalized to the housekeeping gene, GAPDH. All reactions were carried out in triplicate.

[3] = tested on: rats with ISO+5-FU cardiomyopathy
[4] = tested on: CSCs^GFP/TK and adult rat ventricular myocytes (ARVM); test: GCV in vitro on CSCs^GFP/TK growth and on co-cultured adult rat ventricular myocytes; format: cell-based
Method: c-kit^pos CSCs were grown in CSC growth medium consisting of Dulbecco's MEM/Ham's F12 (DMEM/F12; […] Millipore), bFGF (10 ng/ml; Peprotech), EGF (20 ng/ml; Peprotech), insulin-transferrin-selenite (ITS; […] Ganciclovir (GCV, 10^−5M) was added and cells were cultured for 3 and 7 days. Mouse c-kit^pos CSCs or c-kit^pos CSC-derived cardiospheres were cultured on glass chamber slides (BD Falcon), fixed with 4% PFA for 20 min, and then stained. […] For cardiomyocyte/CSC^GFP/TK co-culture assays, 3× wells/condition were fixed and stained to assess the number of apoptotic (TdT and caspase-3) cardiomyocytes (Kawaguchi et al., 2010). Cardiomyocytes were identified by co-staining for cTnI. The percentage of TdT-positive and caspase-3 positive cardiomyocytes was determined by counting 20 random fields at ×40 magnification for each well. Numbers were expressed as a percentage of TdT- or caspase-3 positive cardiomyocytes relative to the total number of cardiomyocytes counted. FITC or Texas Red-conjugated 2° Abs were used. Nuclei were stained with DAPI. Fluorescence was visualized and images acquired with confocal microscopy (Zeiss LSM 510 or 710).

[5] = tested on: hCSCs; test: stimulation of hCSCs with inflammatory cytokines, immunogenicity molecules; format: cell-based, human
Source text: The human c-kit CSCs (hCSCs) from all the donors tested so far (n=8) expressed normal levels of the HLA class I and no detectable levels of HLA class II and the co-stimulatory molecules CD40, CD80 and CD 86 (see primary data example below)> they also fail to express CD 275 but express high levels of PD-L1 (CD274).

[6] = tested on: c-kit^pos CD45^neg eCSCs; test: clonogenic assay of c-kit^pos eCSCs; format: cell-based, rat; conditions: in vitro
Method: as §1, §2

[7] = tested on: rats after ISO damage; conditions: rat, in vivo

Row | Molecule | c-kit^pos eCSC proliferation (growth, expansion) [1] | number of myocyte differentiating (cTnI^pos) cells [2] | transcription of myogenic lineage markers [2] | c-kit^pos eCSC clonogenicity [6] | differentiation of eCSCs into the cardiomyocyte lineage (myocyte specification) [2] | further results
1 | FGF-2: cardiopoietic growth factor | significantly increased |  |  |  |  | 
2 | O=C1Nc2cc(Br)ccc2/C1=C1/Nc2ccccc2/C1=N\O [BIO, 6-bromoindirubin-3′-oxime] | stimulate | significantly reduced | significantly reduced |  |  | 
3 | Nc1nc(O)c2ncn(COC(CO)CO)c2n1 [GCV, Ganciclovir] |  |  |  |  |  | effect of GCV treatment on recovered cellular and functional parameters ([3]; ISO+5-FU+CSCs^GFP/TK group): dramatic reversal of all the recovered cellular and functional parameters; adverse effects of GCV treatment ([3]; rat, in vivo): did not cause any histological or functional adverse effects; adult rat ventricular myocyte (ARVM) apoptosis ([4]; GCV 10^−5 M, alone or co-cultured with CSC^GFP/TK): does not cause any relevant effect; growth of Lenti-GFP/TK-transfected CSCs (CSCs^GFP/TK) ([4]; GCV 10^−5 M, in vitro): growth arrest; survival of adult rat ventricular CMs cultured with CSCs^GFP/TK ([4]; GCV at a concentration sufficient to kill the CSCs^GFP/TK): does not affect survival
4 | IFNγ: inflammatory cytokine |  |  |  |  |  | expression of HLA class I and class II on hCSCs [5]: significantly enhanced; expression of the co-stimulatory molecules CD40, CD80 and CD 86 on hCSCs [5]: does not induce
5 | TGF-β1: cardiopoietic growth factor | did not affect; also recorded: Neither BMP-2, BMP-4, TGF-β1 supplementation nor Smad2 knock-down affected | significantly induced | significantly induced | did not affect; also recorded: Neither BMP-2, BMP-4, TGF-β1 supplementation nor Smad2 knock-down affected | promoted differentiation | 
6 | IGF-1: cardiopoietic growth factor | significantly increased |  |  |  |  | 
7 | HGF: cardiopoietic growth factor | significantly increased |  |  |  |  | 
8 | O=c1[nH]cc(F)c(=O)[nH]1 [5-FU, 5-fluorouracil] |  |  |  |  |  | toxic effects of the 5-FU regime [7]: did not cause any cellular or functional cardiac or extra-cardiac toxic effects
9 | B1 |  | significantly induced | significantly induced |  |  | 
10 | B2 | did not affect |  |  | did not affect | promoted differentiation | 
11 | B3 | did not affect; also recorded: Neither BMP-2, BMP-4, TGF-β1 supplementation nor Smad2 knock-down affected | significantly induced | significantly induced | did not affect; also recorded: Neither BMP-2, BMP-4, TGF-β1 supplementation nor Smad2 knock-down affected | promoted differentiation | 
12 | B4 | significantly increased | significantly reduced | significantly reduced | most effective |  | c-kit^pos eCSC clonogenicity ([6]; listed as Wnt-3a): stimulate; c-kit^pos eCSC proliferation (growth, expansion) ([1]; listed as Wnt-3a): stimulate
13 | B5 | significant decrease |  |  | significant decrease | increased | 
